Several values for one entry are separate records, joined by “and”; a condition that tells them apart may be missing. Equal entries are not always repeated.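 Grown in 96-well plates, cells were treated for 48 hours with each compound at five concentrations. Insufficient inhibition: endpoint recorded as highest concentration tested. GI50: concentration for 50% inhibition of growth. TGI is the concentration that stops growth completely.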
Tests used:
Test in all cases: inhibition of tumour cell growth, NCI panel, 48 h
EKVX NSCLC = test system: EKVX NSCLC
HT29 colon = test system: HT29 colon
LOX IMVI melanoma = test system: LOX IMVI melanoma
M14 melanoma = test system: M14 melanoma
NCI-H522 lung = test system: NCI-H522 lung
UO-31 renal = test system: UO-31 renal
A549 NSCLC = test system: A549 NSCLC
T-47D breast = test system: T-47D breast

Structure (SMILES) | GI50 (EKVX NSCLC) [µM] | TGI (EKVX NSCLC) [µM] | GI50 (HT29 colon) [µM] | TGI (HT29 colon) | GI50 (LOX IMVI melanoma) [µM] | TGI (LOX IMVI melanoma) [µM] | GI50 (M14 melanoma) [µM] | TGI (M14 melanoma) [µM] | GI50 (NCI-H522 lung) [µM] | TGI (NCI-H522 lung) | GI50 (UO-31 renal) [µM] | TGI (UO-31 renal) | GI50 (A549 NSCLC) [µM] | TGI (A549 NSCLC) | GI50 (T-47D breast) [µM] | TGI (T-47D breast) [µM]
COc1ccc(-c2ccc(-c3ccc(C(=N)N)cn3)s2)cc1Cl | 1.75 | 3.41 | 1.18 | 2.87 µM | 1.63 | 3.08 | 1.81 | 3.44 | 1.95 | 4.46 µM | 1.59 | 3.09 µM | – | – | – | –
CCS/C(Nc1ccccc1)=C(\C#N)C(=O)Nc1ccc(OC)cc1 | 4.42 | > 100 | 3.47 | 33.3 µM | 6.16 | > 100 | 2.27 | 87.4 | 2.2 | 9.68 µM | 5.49 | > 100 µM | 5.91 | > 100 µM | 4.08 | > 100
FC(F)(F)c1ccc(-c2cnc(Br)nc2NC2CCCCCC2)cc1 | – | – | 71.4 | > 100 µM | – | – | > 100 | > 100 | 28.3 | > 100 µM | 33.9 | > 100 µM | 86.5 | > 100 µM | 19.6 | > 100
C[Se]C(=O)CC1=C2C=C(F)C=CC2/C(=C\c2ccc(S(C)=O)cc2)C1C (stereo not given) | < 0.0113 | 0.0967 | < 0.0318 | > 100 µM | 0.0141 | 0.0296 | 0.0387 | 1.52 | 0.404 | 2.92 µM | 0.036 | 0.179 µM | 0.0257 | 2.66 µM | 2.94 | > 34
O=C(/C=C/c1ccco1)Nc1ncc(Cc2ccc(F)cc2)s1 | 0.303 | > 100 | 0.0366 | > 100 µM | 0.0918 | > 100 | 0.036 | > 100 | 0.0255 | 0.191 µM | 0.194 | > 100 µM | 0.118 | > 100 µM | 0.03 | > 100
CCNCCNc1cc(-c2ccc(F)cc2)c(C#N)c2nc3ccccc3n12 | 13.6 | 26.7 | 3.06 | 11 µM | 1.82 | 3.45 | 1.97 | 3.63 | 2.93 | 9.43 µM | 1.82 | 3.75 µM | 4.78 | 15.4 µM | 2.26 | 4.63
CC1OC(O)C(O)C(O)C1O (stereo not given) | – | > 100 | – | > 100 µM | – | > 100 | – | > 100 | – | > 100 µM | – | > 100 µM | – | > 100 µM | – | > 100
COc1ccc(C(O)c2cc3c(N)c(C(=O)Nc4cccc(Br)c4)sc3nc2C)cc1 (stereo not given) | 0.197 | > 100 | 0.109 | – | 0.154 | > 32.4 | 0.0318 | 14.1 | 0.0814 | 1.85 µM | 0.271 | > 31.3 µM | 0.14 | > 100 µM | 22.5 | > 100
Fc1ccc(-c2ncn(C3CCNCC3)c2-c2ccnc(Oc3cccc(F)c3)n2)cc1 | > 25 | > 25 | 4.5 | 8.6 µM | 10.5 | > 25 | 5.26 | 10.5 | > 14.7 | > 25 µM | 6.77 | > 25 µM | 24.7 | > 25 µM | 13.8 | > 25
CC(C)C(N)(C(=O)O)c1ccccc1 (stereo not given) | – | > 100 | – | > 100 µM | – | > 100 | – | > 100 | – | > 100 µM | – | > 100 µM | – | > 100 µM | – | > 100
O=C(/C=C\c1ccnc2ccccc12)c1ccc([N+](=O)[O-])cc1 | – | – | 2.36 | 5.37 µM | 1.83 | 3.75 | 4.94 | 19.4 | 15.2 | > 100 µM | 4.99 | > 50.7 µM | > 41.1 | > 100 µM | 4.19 | > 66.4
COc1ccc(NC(=O)c2cc(OC)c(OC)c(OC)c2)cc1O | > 100 | > 100 | 3.21 | 11.6 µM | 8.33 | > 100 | 2.91 | > 100 | – | – | 18.1 | > 100 µM | 4.59 | > 100 µM | 9.89 | > 100
CC(C)(C)CC(C)(C)c1ccc(OCCOCCSC(=N)N)cc1 | – | – | 1.78 | 3.42 µM | 1.72 | 3.09 | 1.8 | 3.39 | 1.71 | 3.18 µM | 1.75 | 3.91 µM | 2.65 | 8.77 µM | 1.68 | 3.54
COc1ccc2c(c1)OC13Oc4cc(OC)ccc4C=C1CCCC3=C2 | > 100 | > 100 | > 100 | > 100 µM | > 100 | > 100 | > 100 | > 100 | > 100 | > 100 µM | – | – | > 100 | > 100 µM | 4.7 | > 100
c1ccc(-c2nc(N3CCNCC3)c3nc(-c4ccccc4)oc3n2)cc1 | 1.78 | 3.39 | 1.84 | 3.85 µM | 1.66 | 3.17 | 1.96 | 3.71 | 1.81 | 3.86 µM | 1.53 | 2.91 µM | – | – | – | –
O=C(/C=C/c1cccc(Cl)c1)c1ccc(Cl)cc1Cl | 12.8 | 34.4 | – | – | 1.88 | 4.69 | 14 | 31 | 1.85 | 15.6 µM | 11.4 | 25.8 µM | 10.4 | 29.7 µM | 9.11 | 25.9
C=C(C)C1/C=C(/C(C)C)CC[C@]2(C)O[C@@H]2CC[C@H](C)CC1=O (stereo not given in full) | – | – | – | – | 23.3 | 57.6 | 49.6 | > 100 | > 100 | > 100 µM | 28.6 | 98.1 µM | 48.5 | > 100 µM | 76.7 | > 100
COc1ccc(/C=C2\N=C3SC=C(N)N3C2=O)cc1 | – | – | 1.21 | 3.37 µM | 0.964 | 2.43 | 1.21 | 4.73 | 0.314 | 1.5 µM | 0.266 | 1.61 µM | 1.64 | 15.6 µM | 0.334 | 14.9
COC(=O)C1(Cc2cccc(Cl)c2)CCCCCCN1C(=O)c1ccccc1 (stereo not given) | – | 26.8 | – | 32.1 µM | – | 32.8 | – | 45 | – | – | – | 29.3 µM | – | 33.6 µM | – | 37.4
O=Nc1c(O)ccc2ccccc12 | – | – | 3.41 | 10.7 µM | 2.36 | 7.51 | 1.92 | 3.84 | 2.06 | 4.25 µM | 1.1 | 4.79 µM | 4.9 | 17.5 µM | – | –
CC(=O)N1CC(F)(F)c2c(Sc3ncc(N4CCC5(CC4)COC[C@H]5N)nc3N)cccc21 | 8.27 | > 100 | 14.2 | 52.9 µM | 16.6 | 32.1 | 17.9 | 37.8 | – | – | 2.96 | 25.8 µM | 23.1 | > 100 µM | 17.6 | > 100
C=C(C)[C@H]1CC/C(C)=C/CCC(C)C(=O)CC/C(CO)=C\[C@@H]1O (stereo not given in full) | 55.5 | > 100 | – | – | 57.3 | > 100 | 87.7 | > 100 | 86.3 | > 100 µM | > 100 | > 100 µM | > 100 | > 100 µM | > 100 | > 100
O=[N+]([O-])c1ccc2c(N=Nc3c(O)ccc4ccccc34)c(O)cc(S(=O)(=O)O)c2c1 | 39.4 | > 100 | 49.6 | 50 µM and > 100 µM | – | > 100 | – | 10.5 | 17.4 | 50 µM and > 100 µM | 10.9 | 18.9 µM and 51.5 µM | 59.7 | 50 µM and > 100 µM | – | –
CC(=O)Oc1cccc2c1C(=O)c1c(OC(C)=O)cc(C)cc1C2=O | – | > 100 | – | > 100 µM | – | > 100 | – | > 100 | – | > 100 µM | – | – | – | > 100 µM | – | > 100
COc1ccc([C@H]2O[C@@H](CO)C[C@]2(O)c2ccc(OC)cc2)cc1 | > 100 | > 100 | > 100 | > 100 µM | > 100 | > 100 | – | – | > 100 | > 100 µM | > 100 | > 100 µM | > 100 | > 100 µM | – | –
O=C1/C(=C/c2cccs2)CCC/C1=C\c1cccs1 | – | – | > 100 | > 100 µM | > 100 | > 100 | > 100 | > 100 | 40.1 | > 100 µM | > 42.7 | > 85.7 µM | 68.3 | > 100 µM | 2.13 | > 72.8

From PubChem BioAssay (NCI)
